According to patent publication US9556154B2, “Pyrrole-substituted indolone derivative, preparation method therefor, composition comprising same and use thereof” (SHIJIAZHUANG YILING PHARMACEUTICAL CO., LTD., priority 2014, dated 2017):
Entries after “also recorded” stand apart in the source; their conditions may differ. Like-named read-outs stand apart in the source and are kept apart here.

Assays:
[1] = test system: HUVEC; experiment: Cytotoxicity to HUVEC (MTS); format: cell-based, Human; conditions: for TI = CC50/EC50: HUVEC; for Cytotoxicity to HUVEC compared with sunitinib: in words
Procedure: (§1) Assays for cytotoxicity: the above HUVECs were cultured in an F-12K culture medium containing 10% fetal bovine serum (FBS), 100 U/mL penicillin, 100 µg/mL streptomycin, 30 ug/mL ECGS, and 18 u/mL heparin. The HUVECs growing in the exponential phase were digested with pancreatin, and was adjust to have an appropriate level of cell density by using an F-12K complete medium containing 5% FBS, then 150 μL cells were inoculated into a 96-well plate at 3000 cells/well. […] After the cells were further cultured for 72 h, 20 μL MTS and 1 μL PMS were added to each well. 1-2 hours later, OD490 was measured, with OD650 as a reference. A dose-effect curve was drawn using the GraphPad Prism software, and half cytotoxic concentration (CC50) was calculated. The therapeutic index (TI) of the test compound on HUVECs was calculated as TI=CC50/EC50.

[2] = Cytotoxicity to HUVEC (MTS); format: cell-based, Human; conditions: human, HUVEC cells; 72 h
Procedure: as §1

[3] = test system: HUVEC; experiment: Inhibitory activity on VEGF-induced in vitro proliferation of HUVEC (MTS); format: cell-based; conditions: Homo sapiens, 72 h, read-out: EC50, activity on VEGF-induced in vitro proliferation of HUVEC
Procedure: Assays for inhibitory activity on VEGF-induced proliferation of Human umbilical veins […] cell (HUVEC) line: HUVECs were cultured in F-12K containing 10% FBS, 18 u/mL heparin and 30 µg/mL ECGS, and HUVECs at 4-8 passages were selected for the experiment. The cells were digested with pancreatin, re-suspended in culture media (1×10^5/mL), and were added to a 96-well plate with 100 μL/well, for overnight adherent culturing. The culture was replaced with an F-12K culture solution containing 5% FBS and the cells were cultured for 24 h. […] A 0.1% FBS F-12K culture solution containing VEGF165 at a final concentration of 30 ng/ml or the vehicle (DMSO) was added and the cells were cultured under induction for 72 h. The culture solution was removed by pipetting, and 120 μL MTS assay solution was added to each well, which was incubated at 37° C. The OD490 was read. The group treated with a 5% FBS F-12K culture solution served as the negative control. VEGF-stimulated growth value was obtained by subtracting the OD of the negative control group from the OD of the VEGF165-stimulated group, and used for calculation of inhibition. A dose-effect curve was drawn using the GraphPad Prism software, and half effective concentration (EC50) was calculated.

[4] = test system: MV-4-11 cell line; experiment: Inhibitory activity on proliferation of human-derived MV-4-11 tumor cell line (MTS); format: cell-based; conditions: for IC50: Homo sapiens, MV4-11, 72 h, read-out: IC50, in vitro proliferation of MV-4-11 cell line; for Maximum inhibition: MV-4-11, 72 h
Excerpt: Human-derived acute leukemia cell line MV-4-11 is a cell line having mutation(s) in Flt-3.

[5] = target: KDR (VEGF receptor) tyrosine kinase (Homo sapiens, UniProt P35968); experiment: In vitro assay of biochemical activity on KDR tyrosine kinase (HTRF); conditions: read-out: In vitro inhibitory activity on KDR, IC50
KDR (VEGF receptor) tyrosine kinase, sequence (P35968 20-1356): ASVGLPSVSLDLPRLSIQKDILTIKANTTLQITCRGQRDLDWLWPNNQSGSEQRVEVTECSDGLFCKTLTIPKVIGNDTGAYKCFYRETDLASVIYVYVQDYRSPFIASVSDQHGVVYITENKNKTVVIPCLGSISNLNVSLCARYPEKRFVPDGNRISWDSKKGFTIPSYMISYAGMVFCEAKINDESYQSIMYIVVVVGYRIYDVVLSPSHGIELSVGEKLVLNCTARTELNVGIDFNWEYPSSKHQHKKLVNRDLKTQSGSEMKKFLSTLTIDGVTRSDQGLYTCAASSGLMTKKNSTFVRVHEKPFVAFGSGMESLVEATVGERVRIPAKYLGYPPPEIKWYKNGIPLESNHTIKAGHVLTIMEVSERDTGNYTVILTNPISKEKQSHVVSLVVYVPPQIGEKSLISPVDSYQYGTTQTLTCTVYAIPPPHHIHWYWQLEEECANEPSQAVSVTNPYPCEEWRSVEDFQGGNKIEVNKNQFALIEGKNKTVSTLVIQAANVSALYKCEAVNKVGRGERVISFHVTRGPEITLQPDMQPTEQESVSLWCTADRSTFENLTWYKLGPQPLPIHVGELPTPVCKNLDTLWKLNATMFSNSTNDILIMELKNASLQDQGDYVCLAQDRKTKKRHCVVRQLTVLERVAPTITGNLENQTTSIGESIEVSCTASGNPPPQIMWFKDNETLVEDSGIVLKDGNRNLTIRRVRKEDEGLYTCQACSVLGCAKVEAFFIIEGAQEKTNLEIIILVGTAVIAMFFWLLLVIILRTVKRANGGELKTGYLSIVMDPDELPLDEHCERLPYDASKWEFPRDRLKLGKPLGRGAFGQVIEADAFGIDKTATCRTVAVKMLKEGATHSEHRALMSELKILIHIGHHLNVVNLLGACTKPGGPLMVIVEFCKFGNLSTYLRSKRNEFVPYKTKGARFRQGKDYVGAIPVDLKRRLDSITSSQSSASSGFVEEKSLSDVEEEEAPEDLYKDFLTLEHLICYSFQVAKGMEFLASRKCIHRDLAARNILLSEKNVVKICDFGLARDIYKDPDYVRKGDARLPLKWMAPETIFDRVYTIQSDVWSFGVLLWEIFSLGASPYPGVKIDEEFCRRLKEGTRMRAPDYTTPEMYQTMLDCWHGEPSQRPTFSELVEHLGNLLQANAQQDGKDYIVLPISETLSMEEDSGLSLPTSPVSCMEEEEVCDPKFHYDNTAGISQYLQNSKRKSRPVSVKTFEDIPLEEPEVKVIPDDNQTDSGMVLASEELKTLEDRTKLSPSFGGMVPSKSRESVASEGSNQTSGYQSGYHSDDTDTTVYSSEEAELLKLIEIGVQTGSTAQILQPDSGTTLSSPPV
Procedure: In vitro inhibitory activity of the compounds on KDR (VEGF receptor) tyrosine kinase was assayed by the HTRF (homogeneous time-resolved fluorescence) method. […] 10 μl SA-XL665 and a TK antibody were added to each well, which was incubated at room temperature for 1 h and read with Synergy2.

[6] = test system: MV-4-11 transplanted tumor; experiment: In vivo inhibition on MV-4-11 transplanted tumor in nude mice; set-up: species or system Balb/c nude mice; conditions: for BW (body weight) D0 / TV (tumor volume) D0: D0, 80 mg/kg intragastric once per day; for BW (body weight) D0 / BW (body weight) D21: in g (unit assumed); for TV (tumor volume) D0 / TV (tumor volume) D21: in mm³; for BW (body weight) D21 / TV (tumor volume) D21: D21, 80 mg/kg intragastric once per day
Procedure: MV-4-11 cells were cultured to proliferate in vitro, and the cells growing in the exponential phase were harvested and re-suspended in a serum-free EMEM culture medium. The cell suspension was subcutaneously injected by a syringe into the axillary cavity of the right forelimb of male Balb/c nude mice. The animals and growth of transplanted tumors were observed regularly. […] During the administration period, the diameter of tumors and body weight (BW) of animals were measured, and the living status of animals was monitored. The experiment was finished 3 weeks after administration, and the animals were sacrificed with CO2 and subjected to autopsy.

[7] = day 21, 80 mg/kg intragastric, in words

| Structure (SMILES) | TI = CC50/EC50 [1] | CC50 at 72 h [2] [nM] | EC50 ([3]; VEGF165 30 ng/ml) [nM] | IC50 [4] [nM] | Maximum inhibition [4] [%] | Cytotoxicity to HUVEC compared with sunitinib [1] | IC50 [5] [nM] | BW (body weight) D0 [6] | TV (tumor volume) D0 [6] | BW (body weight) D21 [6] | TV (tumor volume) D21 [6] | Effect on tumors [6, 7] | Impact on body weight of animals [6, 7] | Impact on body weight of animals ([6]; day 21, 80 mg/kg intragastric, in words, listed as sunitinib) | EC50 [3] [nM] |
| --- | --- | --- | --- | --- | --- | --- | --- | --- | --- | --- | --- | --- | --- | --- | --- |
| Cc1[nH]c(/C=C2\C(=O)Nc3ccc(F)cc32)c(C)c1NC(=O)N1CCCCC1 [Comparative compound 1, reference compound] | 430 | 5690 | 13.2 |  |  |  |  |  |  |  |  |  |  |  |  |
| Cc1[nH]c(/C=C2\C(=O)Nc3ccc(F)cc32)c(C)c1NC(=O)N1CCCC1 [Comparative compound 2, reference compound] | 567 | 6980 | 12.3 |  |  |  |  |  |  |  |  |  |  |  |  |
| Cc1[nH]c(/C=C2\C(=O)Nc3ccc(F)cc32)c(C)c1NC(=O)CC1CCNCC1 [Comparative compound 3, reference compound] | 550 | 8050 | 14.6 |  |  |  |  |  |  |  |  |  |  |  |  |
| Cc1[nH]c(/C=C2\C(=O)Nc3ccc(F)cc32)c(C)c1NC(=O)C1CCNCC1 [Compound 2] | >1238 | > 20000 | 16.1 | 4.7 | 92.6 | considerably lower than that of sunitinib | 290 |  |  |  |  |  |  |  |  |
| Cc1[nH]c(/C=C2\C(=O)Nc3ccc(F)cc32)c(C)c1NC(=O)C1CCN(C(=O)N(C)C)CC1 [Compound 3] | >1456 | > 20000 | 13.7 | 10.7 | 92.1 | considerably lower than that of sunitinib | 78 |  |  |  |  |  |  |  |  |
| Cc1[nH]c(/C=C2\C(=O)Nc3ccc(F)cc32)c(C)c1NC(=O)C1CCN(C)CC1 [Compound 5] | >1085 | > 20000 | 18.4 | 1.68 | 95.0 | considerably lower than that of sunitinib | 141 |  |  |  |  |  |  |  |  |
| Cc1[nH]c(/C=C2\C(=O)Nc3ccc(F)cc32)c(C)c1NC(=O)[C@H]1CCCN1 [Compound 6] | 1316 | 17600 | 13.3 | 11.6 | 92.4 | considerably lower than that of sunitinib | 83 | 20.42 ± 0.20 | 238.25 ± 13.18 | 21.38 ± 0.37 | 0.00 ± 0.00 | completely disappeared; also recorded: complete disappearance of tumors | no significant impact on the body weight; also recorded: little impact on the body weight |  |  |
| Cc1[nH]c(/C=C2\C(=O)Nc3ccc(F)cc32)c(C)c1NC(=O)[C@H]1CCCN1C(=O)N(C)C [Compound 8] | >1762 | > 20000 | 11.3 |  |  | considerably lower than that of sunitinib | 66 |  |  |  |  |  |  |  |  |
| Cc1[nH]c(/C=C2\C(=O)Nc3ccc(F)cc32)c(C)c1NC(=O)C1CCCCN1 (stereo not shown) [Compound 9] |  |  |  | 5.34 | 94.3 |  | 89 |  |  |  |  |  |  |  |  |
| Cc1[nH]c(/C=C2\C(=O)Nc3ccc(F)cc32)c(C)c1NC(=O)C1CCN(C(=O)N2CCCC2)CC1 [Compound 11] | >1436 | > 20000 | 13.9 |  |  | considerably lower than that of sunitinib | 74 |  |  |  |  |  |  |  |  |
| Cc1[nH]c(/C=C2\C(=O)Nc3ccc(F)cc32)c(C)c1NC(=O)C1CCCNC1 (stereo not shown) [Compound 12] |  |  |  | 7.87 | 93.1 |  | 142 |  |  |  |  |  |  |  |  |
| Cc1[nH]c(/C=C2\C(=O)Nc3ccc(F)cc32)c(C)c1NC(=O)C1CCCN(C(=O)N(C)C)C1 (stereo not shown) [Compound 13] |  |  |  | 6.41 | 90.2 | considerably lower than that of sunitinib | 77 |  |  |  |  |  |  |  |  |
| Cc1[nH]c(/C=C2\C(=O)Nc3ccc(F)cc32)c(C)c1NC(=O)C1CCCN(C(=O)N2CCCC2)C1 (stereo not shown) [Compound 14] | >1534 | > 20000 | 13 |  |  | considerably lower than that of sunitinib | 143 |  |  |  |  |  |  |  |  |
| Cc1[nH]c(/C=C2\C(=O)Nc3ccc(F)cc32)c(C)c1NC(=O)[C@@H]1CCCN1 [Compound 15] | 1247 | 17700 | 14.2 | 12.3 | 92.5 | considerably lower than that of sunitinib | 65 |  |  |  |  |  |  |  |  |
| CCN(CC)CCNC(=O)c1c(C)[nH]c(/C=C2\C(=O)Nc3ccc(F)cc32)c1C [Sunitinib, reference compound] |  | 4140 |  | 3.94 | 94.4 |  |  | 19.47 ± 0.33 | 242.75 ± 20.58 | 16.02 ± 0.56 | 12.97 ± 2.47 |  | significantly reduces the body weight | significantly reduced | 7.73 |
